{
  "source": "paper PMC13045254",
  "about": "“Dual Targeting of DNA and EGFR by ZYH005 Induces DNA Damage and Mitotic Catastrophe in Glioblastoma” (MedComm, 2026)",
  "biological_target": "T1, epidermal growth factor receptor (EGFR) (Homo sapiens, UniProt P00533)",
  "T1 construct": "recombinant EGFR kinase domain",
  "T1 sequence (P00533 712-979 limits assumed)": "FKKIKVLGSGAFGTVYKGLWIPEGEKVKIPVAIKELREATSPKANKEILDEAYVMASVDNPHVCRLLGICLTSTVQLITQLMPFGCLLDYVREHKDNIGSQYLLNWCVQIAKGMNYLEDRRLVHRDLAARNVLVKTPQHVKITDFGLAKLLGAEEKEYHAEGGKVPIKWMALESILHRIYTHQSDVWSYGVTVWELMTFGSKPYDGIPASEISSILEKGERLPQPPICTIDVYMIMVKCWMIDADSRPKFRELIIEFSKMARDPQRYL",
  "test": "SPR with recombinant kinase domain; supported by CETSA, DARTS and LiP-MS",
  "type": "binding",
  "data": [
    {"smiles": "COc1ccc(CCn2c(=O)c3cc4c(cc3c3ccccc32)OCO4)cc1", "note": "[Z5, ZYH005]", "values": [
      {"measurement": "Kd", "result": 19.6, "unit": "µM"}
    ]}
  ]
}
